In this assay the test system is hepatitis B virus. The assay is described as follows: Anti-viral effect on hepatitis B virus in SCID mice injected with patient serum, plasma HBsAg by ELISA. The class given is in vivo. The protocol:
The serum of the patient infected with hepatitis B virus was collected and injected into the SCID mice. Interferon-alpha, Interferon-alpha-containing emulsions and untreated groups of mice were divided to evaluate antiviral bioactivity of inteferon. Different formulations were administered at the interferon-alpha dose of 1000 units/g body weight of mice. Three days later, blood was collected and the concentrations of hepatitis B virus surface antigen (HBsAg) in plasma were determined by ELISA method.
For orientation: ELISA stands for enzyme-linked immunosorbent assay.

Here are results for one substance from patent US20040219175A1, “Thermogelling emulsions for sustained release of bioactive substances” (Industrial Technology Research Institute, priority 2002, published 2004).

With Interferon-alpha, the “anti-viral effect compared to the untreated control” value (p<0.05) is “statistically significant anti-viral effect”. The “relative HBsAg ratio to the untreated control” value (plasma, three days after 1000 units/g body weight, untreated defined as 1.0) turned out to be 0.29±0.4.
